Assay results reported in ChEMBL document CHEMBL5149973, “Agaricus bisporus-Derived Glucosamine Hydrochloride Facilitates Skeletal Injury Repair through Bmp Signaling in Zebrafish Osteoporosis Model” (J Nat Prod, 2021).
Activity calls are given as the source filed them. The calls are words filed in the database; no cut-off is given here.

Columns and labels:
Danio rerio [1] = species: Danio rerio; test: Induction of Zebrafish embryo skeletal development assessed as increase in gfp expression level in ventral head at 0.05 to 0.3 % measured at 24 to 72 hrs post fertilization by DAPI staining based analysis; type: functional, tissue-based; settings: dose 0.05-0.3 %, time 24-72 hrs
Danio rerio [2] = species: Danio rerio; test: Induction of Zebrafish Larva cartilage development assessed as increase in bone mineralization at 0.05 to 0.3 % measured at 6 days post fertilization by Alizarin red staining based assay; type: functional; settings: dose 0.05-0.3 %, time 6.0 day
Osteoblast [3] = test: Induction of osteoblast differentiation in Zebrafish embryo assessed as upregulation of runx2b gene expression in parasphenoid measured at 0.75 to 72 hrs post fertilization at 0.05 to 0.3 % by […] analysis; type: functional; settings: Danio rerio, dose 0.05-0.3 %, time 0.75-72 hrs
[4] = Induction of Zebrafish embryo skeletal development assessed as mortality rate of embryo at 0.1 % measured after 72 hrs post fertilization by Alcian blue staining based assay; type: functional, Danio rerio
Danio rerio [5] = species: Danio rerio; test: Induction of Zebrafish embryo skeletal development assessed as Bmp2b localization in cytoplasm at 0.1 % measured at 24 to 72 hrs post fertilization; type: functional, tissue-based; settings: time 24-72 hrs
Danio rerio [6] = species: Danio rerio; test: Induction of Zebrafish embryo skeletal development assessed as increase in gfp expression level in tail at 0.05 to 0.3 % measured at 24 to 72 hrs post fertilization by DAPI staining based analysis; type: functional, tissue-based; settings: dose 0.05-0.3 %, time 24-72 hrs
Danio rerio [7] = species: Danio rerio; test: Anti-osteoporosis activity in FAC-induced skeletal injury Zebrafish larvae assessed as reduction in bone damage measured for 10 day post fertilization by Alizarin red staining based assay; type: functional, Larva; parameters: scale not given: the % may be the effect or the level left
Osteoblast [8] = test: Induction of osteoblast differentiation in Zebrafish embryo assessed as upregulation of sox9b gene expression in head measured at 0.75 to 72 hrs post fertilization at 0.05 to 0.3 % by ELISA analysis; type: functional, tissue-based; settings: Danio rerio, dose 0.05-0.3 %, time 0.75-72 hrs
Danio rerio [9] = species: Danio rerio; test: Suppression of Bmp signaling in Zebrafish embryo assessed as reduction in indistinctive tail tissue at 0.1 % measured at 26 hrs post fertilization in presence of dorsomorphin; type: functional; parameters: scale not given: the % may be the effect or the level left
Danio rerio [10] = species: Danio rerio; test: Induction of Zebrafish embryo skeletal development assessed as increase in Smad5 gene expression level in head at 0.1 % measured for 0.75 to 24 hrs post fertilization by ISH analysis; type: functional, tissue-based; settings: time 0.75-24 hrs
Danio rerio [11] = species: Danio rerio; test: Induction of Zebrafish embryo skeletal development assessed as increase in Bmp2b mRNA expression level in head at 0.1 % measured at 72 hrs post fertilization; type: functional, tissue-based
[12] = Induction of Zebrafish Larva cartilage development assessed as increase in H3 phenotype ratio at 0.05 % measured after 5 days post fertilization by Alcian blue staining based assay; type: functional, Danio rerio; settings: time 5 day
Danio rerio [13] = species: Danio rerio; test: Induction of transgenic Zebrafish embryo skeletal development assessed as increase in GFP expression level in neural crest at 0.05 to 0.3 % measured at 24 to 72 hrs post fertilization by DAPI staining based analysis; type: functional, tissue-based; settings: dose 0.05-0.3 %, time 24-72 hrs
Danio rerio [14] = species: Danio rerio; test: Induction of Zebrafish embryo skeletal development assessed as increase in Bmp4 mRNA expression level in head at 0.1 to 0.3 % measured at 24 hrs post fertilization by ISH analysis; type: functional, tissue-based; settings: dose 0.1-0.3 %
Danio rerio [15] = species: Danio rerio; test: Suppression of Bmp signaling in Zebrafish embryo assessed as reduction in slight loss of tail tissue at 0.1 % measured at 26 hrs post fertilization in presence of dorsomorphin; type: functional; parameters: scale not given: the % may be the effect or the level left
Osteoblast [16] = test: Induction of osteoblast differentiation in Zebrafish embryo assessed as upregulation of runx2b gene expression in operculum measured at 0.75 to 72 hrs post fertilization at 0.05 to 0.3 % by […] analysis; type: functional, tissue-based; settings: Danio rerio, dose 0.05-0.3 %, time 0.75-72 hrs
[17] = Induction of Zebrafish embryo skeletal development assessed as mortality rate of embryo at 0.5 % measured after 72 hrs post fertilization by Alcian blue staining based assay; type: functional, Danio rerio
[18] = Induction of Zebrafish Larva cartilage development assessed as increase in H2 phenotype ratio at 0.3 % measured after 5 days post fertilization by Alcian blue staining based assay; type: functional, Danio rerio; settings: time 5 day
Danio rerio [19] = species: Danio rerio; test: Suppression of Bmp signaling in Zebrafish embryos assessed as decrease in Col10a1a gene expression level at 0.1 % measured at 26 hrs post fertilization by semiquantitative PCR analysis; type: functional, tissue-based; settings: Embryo
[20] = Induction of Zebrafish embryo skeletal development assessed as mortality rate of embryo at 0.03 % measured after 72 hrs post fertilization by Alcian blue staining based assay; type: functional, Danio rerio
Danio rerio [21] = species: Danio rerio; test: Induction of Zebrafish embryo skeletal development assessed as upregulation of col10a1a gene expression in head bone at 0.01 to 0.3 % measured after 72 hrs post fertilization by […] analysis; type: functional, tissue-based; settings: dose 0.01-0.3 %
Danio rerio [22] = species: Danio rerio; test: Induction of Zebrafish embryo skeletal development assessed as increase in Bmp2b mRNA expression level in head at 0.1 to 0.3 % measured at 24 hrs post fertilization by ISH analysis; type: functional, tissue-based; settings: dose 0.1-0.3 %
Danio rerio [23] = species: Danio rerio; test: Induction of Zebrafish embryo skeletal development assessed as increase in Bmp4 mRNA expression level in bud region at 0.1 to 0.3 % measured at 24 hrs post fertilization by ISH analysis; type: functional, tissue-based; settings: dose 0.1-0.3 %
Danio rerio [24] = species: Danio rerio; test: Suppression of Bmp signaling in Zebrafish embryos assessed as decrease in sp7 gene expression level at 0.1 % measured at 26 hrs post fertilization by semiquantitative PCR analysis; type: functional, tissue-based; settings: Embryo
Danio rerio [25] = species: Danio rerio; test: Anti-osteoporosis activity in FAC-induced skeletal injury Zebrafish assessed as rescue of skeletal density in caudal fins at 0.1 % measured for 10 day post fertilization; type: functional, organism-based
Danio rerio [26] = species: Danio rerio; test: Anti-osteoporosis activity in FAC-induced skeletal injury Zebrafish larvae assessed as increase in Sox9a mRNA expression level measured for 10 day post fertilization by semiquantitative-PCR analysis; type: functional, organism-based; settings: Larva
Danio rerio [27] = species: Danio rerio; test: Induction of Zebrafish embryo skeletal development assessed as upregulation of col10a1a gene expression in palatoquadrate at 0.01 to 0.3 % measured after 72 hrs post fertilization by […] analysis; type: functional, tissue-based; settings: dose 0.01-0.3 %
Danio rerio [28] = species: Danio rerio; test: Induction of Zebrafish embryo skeletal development assessed as nuclear localization of p-Smad5 in tail at 0.1 % measured at 24 to 72 hrs post fertilization by DAPI staining based analysis; type: functional, tissue-based; settings: time 24-72 hrs
[29] = Induction of Zebrafish embryo skeletal development assessed as mortality rate of embryo at 0.01 % measured after 72 hrs post fertilization by Alcian blue staining based assay; type: functional, Danio rerio
Danio rerio [30] = species: Danio rerio; test: Suppression of Bmp signaling in Zebrafish embryos assessed as decrease in Bmp4 gene expression level at 0.1 % measured at 26 hrs post fertilization by semiquantitative PCR analysis; type: functional, tissue-based; settings: Embryo
Osteoblast [31] = test: Induction of osteoblast differentiation in Zebrafish embryo assessed as upregulation of runx2b gene expression in head measured at 0.75 to 72 hrs post fertilization at 0.05 to 0.3 % by […] analysis; type: functional; settings: Danio rerio, dose 0.05-0.3 %, time 0.75-72 hrs
[32] = Induction of Zebrafish Larva caudal fin regeneration measured for 15 days by Calcein staining based assay; type: functional, Danio rerio; settings: time 15 day
Danio rerio [33] = species: Danio rerio; test: Induction of transgenic Zebrafish embryo skeletal development assessed as increase in GFP expression level in head at 0.05 to 0.3 % measured at 24 to 72 hrs post fertilization by DAPI staining based analysis; type: functional, tissue-based; settings: dose 0.05-0.3 %, time 24-72 hrs
Osteoblast [34] = test: Induction of osteoblast differentiation in Zebrafish embryo assessed as upregulation of sox9a gene expression in head measured at 0.75 to 72 hrs post fertilization at 0.05 to 0.3 % by […] analysis; type: functional; settings: Danio rerio, dose 0.05-0.3 %, time 0.75-72 hrs

For Cl.N[C@@H]1[C@@H](O)[C@H](O)[C@@H](CO)O[C@H]1O, which Activity (Danio rerio [1]) is on record?
Its Activity is “Active”.

What about the Activity (Danio rerio [2]) of the same compound?
Its Activity is “Active”.

And the Activity (Osteoblast [3])?
Its Activity is “Active”.

What about the Activity [4] of the same compound?
The Activity was 24%.

And the Activity (Danio rerio [5])?
The Activity was “Active”.

And the Activity (Danio rerio [6])?
The Activity was “Active”.

And the Activity (Danio rerio [7])?
The Activity was 70%.

What about the Activity (Osteoblast [8]) of the same compound?
Its Activity is “Active”.

What about the Activity (Danio rerio [9]) of the same compound?
The Activity was 20%.

What about the Activity (Danio rerio [10]) of the same compound?
Its Activity is “Active”.

And the Activity (Danio rerio [11])?
The Activity was “Active”.

What about the Activity [12] of the same compound?
The Activity was 40%.

What about the Activity (Danio rerio [13]) of the same compound?
Its Activity is “Active”.

What about the Activity (Danio rerio [14]) of the same compound?
Its Activity is “Active”.

What about the Activity (Danio rerio [15]) of the same compound?
Its Activity is 50%.

What about the Activity (Osteoblast [16]) of the same compound?
The Activity was “Active”.

And the Activity [17]?
The Activity was 100%.

And the Activity [18]?
The Activity was 50%.

What about the Activity (Danio rerio [19]) of the same compound?
The Activity was “Active”.

And the Activity [20]?
Its Activity is 16%.

What about the Activity (Danio rerio [21]) of the same compound?
The Activity was “Active”.

And the Activity (Danio rerio [22])?
The Activity was “Active”.

What about the Activity (Danio rerio [23]) of the same compound?
Its Activity is “Active”.

What about the Activity (Danio rerio [24]) of the same compound?
The Activity was “Active”.

What about the Activity (Danio rerio [25]) of the same compound?
Its Activity is “Active”.

What about the Activity (Danio rerio [26]) of the same compound?
The Activity was “Active”.

And the Activity (Danio rerio [27])?
Its Activity is “Active”.

And the Activity (Danio rerio [28])?
Its Activity is “Active”.

And the Activity [29]?
The Activity was 12%.

What about the Activity (Danio rerio [30]) of the same compound?
Its Activity is “Active”.

What about the Activity (Osteoblast [31]) of the same compound?
Its Activity is “Active”.

What about the Activity [32] of the same compound?
The Activity was 50%.

And the Activity (Danio rerio [33])?
The Activity was “Active”.

And the Activity (Osteoblast [34])?
The Activity was “Active”.
